From patent publication US9403866B2, “Compositions and methods for increasing telomerase activity” (Telomerase Activation Sciences, Inc., priority 2009, dated 2016)

Experiments:
lung fibroblasts = experiment: Long-term culture of lung fibroblasts; type: cell-based, human
telomerase = telomerase (Homo sapiens, UniProt O14746); experiment: Keratinocyte cell/TRAP assay (HEKneo-P cells); type: cell-based; set-up: host or cells: HEKneo-P (pooled neonatal human epidermal keratinocytes); settings: telomerase activation
Text: Harley et al., U.S. Pat. […] Harley et al., U.S. Pat. […] Non-treatment control (NT) was also included. […]

Sequence of telomerase (O14746 whole entry): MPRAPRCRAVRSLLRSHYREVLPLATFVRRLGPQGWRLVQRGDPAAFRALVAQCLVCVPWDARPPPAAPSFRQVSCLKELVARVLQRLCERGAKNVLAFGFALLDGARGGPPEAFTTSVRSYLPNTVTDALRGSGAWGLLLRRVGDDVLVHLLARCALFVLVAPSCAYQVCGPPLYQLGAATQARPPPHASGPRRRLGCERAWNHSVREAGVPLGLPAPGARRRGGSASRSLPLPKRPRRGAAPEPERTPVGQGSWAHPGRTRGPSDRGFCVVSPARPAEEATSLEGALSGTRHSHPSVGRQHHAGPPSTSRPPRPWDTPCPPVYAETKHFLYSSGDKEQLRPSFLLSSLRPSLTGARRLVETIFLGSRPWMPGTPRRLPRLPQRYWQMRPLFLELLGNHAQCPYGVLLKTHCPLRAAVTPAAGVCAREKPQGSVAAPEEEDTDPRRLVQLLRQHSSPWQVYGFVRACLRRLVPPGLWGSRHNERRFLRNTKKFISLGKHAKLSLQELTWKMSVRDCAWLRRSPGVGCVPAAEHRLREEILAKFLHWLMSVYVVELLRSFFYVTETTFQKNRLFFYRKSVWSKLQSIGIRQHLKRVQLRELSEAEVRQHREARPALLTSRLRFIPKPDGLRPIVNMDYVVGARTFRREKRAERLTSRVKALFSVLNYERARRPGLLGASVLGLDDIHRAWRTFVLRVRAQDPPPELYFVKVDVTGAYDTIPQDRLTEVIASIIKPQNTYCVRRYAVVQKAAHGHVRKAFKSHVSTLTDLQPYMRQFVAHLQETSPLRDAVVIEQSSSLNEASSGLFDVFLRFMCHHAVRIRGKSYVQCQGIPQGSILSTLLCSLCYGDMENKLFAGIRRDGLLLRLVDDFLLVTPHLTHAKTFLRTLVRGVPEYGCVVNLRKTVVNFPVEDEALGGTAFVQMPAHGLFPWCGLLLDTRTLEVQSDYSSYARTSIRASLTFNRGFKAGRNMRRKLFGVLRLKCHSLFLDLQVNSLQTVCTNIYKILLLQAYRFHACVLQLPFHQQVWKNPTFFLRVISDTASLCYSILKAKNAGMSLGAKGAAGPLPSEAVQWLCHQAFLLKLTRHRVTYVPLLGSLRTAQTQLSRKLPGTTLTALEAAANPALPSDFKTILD

CC(C)C(N)C(=O)OC1CCC23CC24CCC2(C)C(C5(C)CCC(C(C)(C)O)O5)C(O)CC2(C)C4CC(O)C3C1(C)C (stereo not drawn) [Compound 4, 2-(L)-Amino-3-methyl-butyric acid 6α,16β-dihydroxy-17-[5-(1-hydroxy-1-methyl-ethyl)-2-methyl-tetrahydro-furan-2-yl]-4,4,13,14-tetramethyl-tetradecahydro-cyclopropa[9,10]cyclopenta[a]phenanthren-3β-yl ester]
effect in long-term culture (lung fibroblasts): No effect
EC50 (telomerase): 6 to 22 nM
